Target: PI3Kδ (PI3Kd) (Homo sapiens (Human), UniProt O00329)
Experiment: PI3K HTRF enzymatic inhibition assay (cell-free), delta isoform
Conditions: read-out: IC50 PI3Kd HTRF; recombinant PI3K delta, [ATP] 15 μM, [PIP2] 2 μM, 30 min preincubation
Description: Compounds were screened for their ability to inhibit PI3Kα (PI3Ka), PI3Kβ (PI3Kb), PI3Kδ (PI3Kd) and PI3Kγ (PI3Kg) using a cell-free based PI3K HTRF™ assay (Millipore, ref. #33-017).
PI-3 Kinase HTRF kit (ref. #33-037) and the different PI3K recombinant isoforms (ref. #14-602, ref. #14-603, ref. #14-604, ref. #15-558 for Alpha, Beta, Delta and Gamma respectively) were purchased at Millipore (expressed in insect cells). ATP was purchased at Sigma Aldrich (ref. #A7699).
The compounds were pre-incubated with the enzyme for 30 min before starting of the catalytic reaction. [PIP2] was used at its Km. […] Time of assay and [Enzyme] were optimized to work in the linear range. Stop and Detection mixtures were used as specified in the Millipore PI-3 Kinase kit.
Reaction time and enzyme concentration in the assay will depend of each batch.
All experiments were analysed using Activity Base software from IDBS and the four-parameter log equation.

PI3Kδ (PI3Kd), sequence (O00329 whole entry, canonical isoform): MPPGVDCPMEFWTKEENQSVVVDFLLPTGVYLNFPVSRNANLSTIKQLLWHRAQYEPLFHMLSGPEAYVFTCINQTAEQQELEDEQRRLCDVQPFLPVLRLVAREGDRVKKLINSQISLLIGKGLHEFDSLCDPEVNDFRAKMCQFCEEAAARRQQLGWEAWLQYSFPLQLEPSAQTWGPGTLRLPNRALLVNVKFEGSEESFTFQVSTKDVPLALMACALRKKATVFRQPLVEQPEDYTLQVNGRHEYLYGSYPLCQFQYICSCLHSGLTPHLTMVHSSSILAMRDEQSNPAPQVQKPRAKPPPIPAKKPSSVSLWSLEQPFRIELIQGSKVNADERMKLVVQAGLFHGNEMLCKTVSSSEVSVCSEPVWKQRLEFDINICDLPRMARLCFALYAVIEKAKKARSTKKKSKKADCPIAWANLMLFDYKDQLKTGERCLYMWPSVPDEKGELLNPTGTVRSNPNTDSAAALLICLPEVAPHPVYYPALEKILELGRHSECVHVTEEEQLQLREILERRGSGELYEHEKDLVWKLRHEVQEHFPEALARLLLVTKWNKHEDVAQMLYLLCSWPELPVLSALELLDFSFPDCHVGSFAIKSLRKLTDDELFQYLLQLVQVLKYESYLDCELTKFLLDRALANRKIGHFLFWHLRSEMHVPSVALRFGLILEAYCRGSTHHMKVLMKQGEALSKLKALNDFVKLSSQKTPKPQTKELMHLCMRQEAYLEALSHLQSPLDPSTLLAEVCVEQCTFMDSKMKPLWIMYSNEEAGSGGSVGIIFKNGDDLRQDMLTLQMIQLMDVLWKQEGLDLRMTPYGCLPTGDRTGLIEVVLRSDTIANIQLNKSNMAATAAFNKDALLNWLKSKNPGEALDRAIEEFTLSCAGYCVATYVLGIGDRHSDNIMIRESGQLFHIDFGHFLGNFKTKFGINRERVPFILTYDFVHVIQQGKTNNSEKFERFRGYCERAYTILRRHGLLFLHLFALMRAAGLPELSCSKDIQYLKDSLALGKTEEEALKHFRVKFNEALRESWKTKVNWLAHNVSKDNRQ
PI3Kδ (PI3Kd), sequence (P27986 whole entry partner, canonical isoform): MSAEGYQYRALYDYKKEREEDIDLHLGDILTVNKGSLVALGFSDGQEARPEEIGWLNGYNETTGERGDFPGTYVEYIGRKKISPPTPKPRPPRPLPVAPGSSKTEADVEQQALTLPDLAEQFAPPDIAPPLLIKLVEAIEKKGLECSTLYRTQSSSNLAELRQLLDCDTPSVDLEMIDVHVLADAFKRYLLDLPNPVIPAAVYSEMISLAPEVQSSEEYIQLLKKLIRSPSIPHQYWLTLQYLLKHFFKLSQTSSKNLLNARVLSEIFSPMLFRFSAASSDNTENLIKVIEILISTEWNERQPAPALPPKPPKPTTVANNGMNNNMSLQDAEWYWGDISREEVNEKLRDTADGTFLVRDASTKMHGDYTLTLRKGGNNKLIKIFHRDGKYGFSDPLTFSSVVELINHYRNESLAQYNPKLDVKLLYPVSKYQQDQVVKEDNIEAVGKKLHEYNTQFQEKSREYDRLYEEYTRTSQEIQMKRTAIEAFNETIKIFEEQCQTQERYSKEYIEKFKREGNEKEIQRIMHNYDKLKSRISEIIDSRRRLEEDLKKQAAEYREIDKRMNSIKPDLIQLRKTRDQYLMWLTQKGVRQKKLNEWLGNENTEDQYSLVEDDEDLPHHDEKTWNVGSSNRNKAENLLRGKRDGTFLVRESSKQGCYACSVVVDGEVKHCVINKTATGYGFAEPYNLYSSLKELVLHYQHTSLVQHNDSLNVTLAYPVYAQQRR

Structure (SMILES) | IC50 [nM]
C[C@H](Nc1ncnc(N)c1-c1nnn[nH]1)c1nn2cccc2c(=O)n1-c1ccccc1 [Example 1, (S)-2-(1-(6-Amino-5-(1H-tetrazol-5-yl)pyrimidin-4-ylamino)ethyl)-3-phenylpyrrolo[1,2-f][1,2,4]triazin-4(3H)-one] | 15
C[C@H](Nc1ncnc(N)c1-c1nccs1)c1nn2cccc2c(=O)n1-c1ccccc1 [Example 2, (S)-2-(1-((6-Amino-5-(thiazol-2-yl)pyrimidin-4-yl)amino)ethyl)-3-phenylpyrrolo[2,1-f][1,2,4]triazin-4(3H)-one] | 22
C[C@H](Nc1ncnc(N)c1-c1ccc(N)nc1)c1nn2cccc2c(=O)n1-c1ccccc1 [Example 3, (S)-2-(1-((6-Amino-5-(6-aminopyridin-3-yl)pyrimidin-4-yl)amino)ethyl)-3-phenylpyrrolo[2,1-f][1,2,4]triazin-4(3H)-one] | 40
C[C@H](Nc1ncnc(N)c1-c1cnn(CCO)c1)c1nn2cccc2c(=O)n1-c1ccccc1 [Example 5, (S)-2-(1-((6-Amino-5-(1-(2-hydroxyethyl)-1H-pyrazol-4-yl)pyrimidin-4-yl)amino)ethyl)-3-phenylpyrrolo[2,1-f][1,2,4]triazin-4(3H)-one] | 17
C[C@H](Nc1ncnc(N)c1-c1cc(O)cc(F)c1)c1nn2cccc2c(=O)n1-c1ccccc1 [Example 7, (S)-2-(1-((6-Amino-5-(3-fluoro-5-hydroxyphenyl)pyrimidin-4-yl)amino)ethyl)-3-phenylpyrrolo[2,1-f][1,2,4]triazin-4(3H)-one] | 11
N#Cc1c(N)ncnc1N[C@@H](CCOCc1ccccc1)c1nn2ccc(C#N)c2c(=O)n1-c1cc(F)cc(F)c1 [Example 17, (S)-2-(1-((6-Amino-5-cyanopyrimidin-4-yl)amino)-3-(benzyloxy)propyl)-3-(3,5-difluorophenyl)-4-oxo-3,4-dihydropyrrolo[2,1-f][1,2,4]triazine-5-carbonitrile] | 6
N#Cc1c(N)ncnc1N[C@@H](CCSCc1ccccc1)c1nn2cccc2c(=O)n1-c1ccccc1 [Example 19, (S)-4-Amino-6-((3-(benzylthio)-1-(4-oxo-3-phenyl-3,4-dihydropyrrolo[2,1-f][1,2,4]triazin-2-yl)propyl)amino)pyrimidine-5-carbonitrile] | 95
COc1ncc(-c2c(N)ncnc2N[C@@H](C)c2nn3ccc(C)c3c(=O)n2-c2ccccc2)cc1NS(=O)(=O)c1ccc(F)cc1 [Example 22, (S)—N-(5-(4-Amino-6-((1-(5-methyl-4-oxo-3-phenyl-3,4-dihydropyrrolo[2,1-f][1,2,4]triazin-2-yl)ethyl)amino)pyrimidin-5-yl)-2-methoxypyridin-3-yl)-4-fluorobenzenesulfonamide] | 12
N#Cc1ccn2nc([C@H](CCOCc3ccccc3)Nc3ncnc(N)c3-c3cc(O)cc(F)c3)n(-c3cc(F)cc(F)c3)c(=O)c12 [Example 24, (S)-2-(1-((6-Amino-5-(3-fluoro-5-hydroxyphenyl)pyrimidin-4-yl)amino)-3-(benzyloxy)propyl)-3-(3,5-difluorophenyl)-4-oxo-3,4-dihydropyrrolo[2,1-f][1,2,4]triazine-5-carbonitrile] | 97
C[C@H](Nc1ncnc(N)c1-c1cc(O)cc(F)c1)c1nn2ccc(Sc3ccccc3)c2c(=O)n1-c1ccccc1 [Example 34, (S)-2-(1-((6-Amino-5-(3-fluoro-5-hydroxyphenyl)pyrimidin-4-yl)amino)ethyl)-3-phenyl-5-(phenylthio)pyrrolo[2,1-f][1,2,4]triazin-4(3H)-one] | 12
Cc1ccn2nc([C@H](C)Nc3ncnc4[nH]cc(C(=O)OCc5ccccc5)c34)n(-c3ccccc3)c(=O)c12 [Example 37, (S)-Benzyl 4-((1-(5-methyl-4-oxo-3-phenyl-3,4-dihydropyrrolo[2,1-f][1,2,4]triazin-2-yl)ethyl)amino)-7H-pyrrolo[2,3-d]pyrimidine-5-carboxylate] | 5
COc1cccc(Cc2ccn3nc([C@H](C)Nc4ncnc(N)c4C#N)n(-c4ccccc4)c(=O)c23)c1 [Example 40, (S)-4-Amino-6-((1-(5-(3-methoxybenzyl)-4-oxo-3-phenyl-3,4-dihydropyrrolo[2,1-f][1,2,4]triazin-2-yl)ethyl)amino)pyrimidine-5-carbonitrile] | 30
Cc1ccn2nc([C@H](C)Nc3ncnc4sccc34)n(-c3ccccc3)c(=O)c12 [Example 59, (S)-5-Methyl-3-phenyl-2-(1-(thieno[2,3-d]pyrimidin-4-ylamino)ethyl)pyrrolo[2,1-f][1,2,4]triazin-4(3H)-one] | 10
Cc1ccn2nc([C@H](C)Nc3ncnc(N)c3Cc3cccc(O)c3)n(-c3ccccc3)c(=O)c12 [Example 64, (S)-2-(1-((6-Amino-5-(3-hydroxybenzyl)pyrimidin-4-yl)amino)ethyl)-5-methyl-3-phenylpyrrolo[2,1-f][1,2,4]triazin-4(3H)-one] | 16
C[C@H](Nc1ncnc(N)c1C#N)c1nn2ccc(Cc3cccc(O)c3)c2c(=O)n1-c1ccccc1 [Example 74, (S)-4-Amino-6-((1-(5-(3-hydroxybenzyl)-4-oxo-3-phenyl-3,4-dihydropyrrolo[2,1-f][1,2,4]triazin-2-yl)ethyl)amino)pyrimidine-5-carbonitrile] | 36

Now from value to compound:

IC50 [nM] | Structure (SMILES)
3 | Cc1ccn2nc([C@H](C)Nc3ncnc(N)c3-c3ccc4cc[nH]c4c3)n(-c3ccccc3)c(=O)c12 [Example 15, (S)-2-(1-((6-Amino-5-(1H-indol-6-yl)pyrimidin-4-yl)amino)ethyl)-5-methyl-3-phenylpyrrolo[2,1-f][1,2,4]triazin-4(3H)-one]
5 | Cc1ccn2nc([C@H](C)Nc3ncnc(N)c3-c3cnc(N)nc3)n(-c3ccccc3)c(=O)c12 [Example 16, (S)-2-(1-((2′,6-Diamino-[5,5′-bipyrimidin]-4-yl)amino)ethyl)-5-methyl-3-phenylpyrrolo[2,1-f][1,2,4]triazin-4(3H)-one]
1 | N#Cc1c(N)ncnc1N[C@@H](CCOc1ccccc1)c1nn2cccc2c(=O)n1-c1ccccc1 [Example 20, (S)-4-Amino-6-((1-(4-oxo-3-phenyl-3,4-dihydropyrrolo[2,1-f][1,2,4]triazin-2-yl)-3-phenoxypropyl)amino)pyrimidine-5-carbonitrile]
1 | Cc1ccn2nc([C@H](C)Nc3ncnc4[nH]cc(-c5cc(O)cc(F)c5)c34)n(-c3ccccc3)c(=O)c12 [Example 27, (S)-2-(1-((5-(3-Fluoro-5-hydroxyphenyl)-7H-pyrrolo[2,3-d]pyrimidin-4-yl)amino)ethyl)-5-methyl-3-phenylpyrrolo[2,1-f][1,2,4]triazin-4(3H)-one]
5 | Cc1ccn2nc([C@H](C)Nc3ncnc(N)c3-c3cc(O)cc(C(F)(F)F)c3)n(-c3ccccc3)c(=O)c12 [Example 28, (S)-2-(1-((6-Amino-5-(3-hydroxy-5-(trifluoromethyl)phenyl)pyrimidin-4-yl)amino)ethyl)-5-methyl-3-phenylpyrrolo[2,1-f][1,2,4]triazin-4(3H)-one]
4 | Cc1ccn2nc([C@H](C)Nc3ncncc3-c3cc(O)cc(F)c3)n(-c3ccccc3)c(=O)c12 [Example 35, (S)-2-(1-((5-(3-Fluoro-5-hydroxyphenyl)pyrimidin-4-yl)amino)ethyl)-5-methyl-3-phenylpyrrolo[2,1-f][1,2,4]triazin-4(3H)-one]
3 | Cc1ccn2nc([C@H](C)Nc3ncnc4[nH]cc(Cc5cccc(O)c5)c34)n(-c3ccccc3)c(=O)c12 [Example 43, (S)-2-(1-((5-(3-Hydroxybenzyl)-7H-pyrrolo[2,3-d]pyrimidin-4-yl)amino)ethyl)-5-methyl-3-phenylpyrrolo[2,1-f][1,2,4]triazin-4(3H)-one]
2 | COc1ncc(-c2c[nH]c3ncnc(N[C@@H](C)c4nn5ccc(C)c5c(=O)n4-c4ccccc4)c23)cc1NS(C)(=O)=O [Example 45, (S)—N-(2-Methoxy-5-(4-((1-(5-methyl-4-oxo-3-phenyl-3,4-dihydropyrrolo[2,1-f][1,2,4]triazin-2-yl)ethyl)amino)-7H-pyrrolo[2,3-d]pyrimidin-5-yl)pyridin-3-yl)methanesulfonamide]
1 | Cc1ccn2nc([C@H](C)Nc3ncnc4[nH]cc(-c5cccc6[nH]ncc56)c34)n(-c3ccccc3)c(=O)c12 [Example 52]
0.8 | Cc1ccn2nc([C@H](C)Nc3ncnc4[nH]cc(-c5cc(NS(C)(=O)=O)cc(N(C)C)c5)c34)n(-c3ccccc3)c(=O)c12 [Example 76, (S)—N-(3-(Dimethylamino)-5-(4-((1-(5-methyl-4-oxo-3-phenyl-3,4-dihydropyrrolo[2,1-f][1,2,4]triazin-2-yl)ethyl)amino)-7H-pyrrolo[2,3-d]pyrimidin-5-yl)phenyl)methanesulfonamide]
0.4 | Cc1ccn2nc([C@H](C)Nc3ncnc4[nH]cc(Cc5cc(O)cc(F)c5)c34)n(-c3ccccc3)c(=O)c12 [Example 78, (S)-2-(1-((5-(3-Fluoro-5-hydroxybenzyl)-7H-pyrrolo[2,3-d]pyrimidin-4-yl)amino)ethyl)-5-methyl-3-phenylpyrrolo[2,1-f][1,2,4]triazin-4(3H)-one]
0.3 | Cc1ccn2nc([C@H](C)Nc3ncnc4[nH]cc(C#Cc5ccccc5)c34)n(-c3ccccc3)c(=O)c12 [Example 80, (S)-5-Methyl-3-phenyl-2-(1-((5-(phenylethynyl)-7H-pyrrolo[2,3-d]pyrimidin-4-yl)amino)ethyl)pyrrolo[2,1-f][1,2,4]triazin-4(3H)-one]
0.3 | Cc1ccn2nc([C@H](C)Nc3ncnc4[nH]cc(-c5cccc(S(=O)(=O)N6CCOCC6)c5)c34)n(-c3ccccc3)c(=O)c12 [Example 85, (S)-5-Methyl-2-(1-((5-(3-(morpholinosulfonyl)phenyl)-7H-pyrrolo[2,3-d]pyrimidin-4-yl)amino)ethyl)-3-phenylpyrrolo[2,1-f][1,2,4]triazin-4(3H)-one]
2 | Cc1ccn2nc([C@H](C)Nc3ncnc4[nH]cc(Sc5ccc(O)cc5)c34)n(-c3ccccc3)c(=O)c12 [Example 97, (S)-2-(1-((5-((4-Hydroxyphenyl)thio)-7H-pyrrolo[2,3-d]pyrimidin-4-yl)amino)ethyl)-5-methyl-3-phenylpyrrolo[2,1-f][1,2,4]triazin-4(3H)-one]

— patent publication US9388189B2, “Pyrrolotriazinone derivatives as PI3K inhibitors” (ALMIRALL, S.A., priority 2012, dated 2016)
